# Measurements reported in US20060018826A1, “Biologic modulations with nanoparticles” (priority 2002, published 2006).
# Test system: hormone-insensitive PC3 cells
# Assay: Growth inhibition in prostate carcinoma cells
# Type: cell-based
# Method: In these studies, cells were seeded at 5,000 cells per untreated well.
sequence,measurement,value
"GTCCCGACATGTCAGACAGG (antisense GTCCCGACATGTCAGACAGG; chemistry not given here) [SEQ ID NO 1, antisense 20 mer spanning the translation start site of CK2α]",IC50 as % of cisplatin's IC50,65%
